In patent publication US6472348B1, “Pyridone derivatives and herbicides” (Kumiai Chemical Industry Co., Ltd., priority 1996, dated 2002):

How the values were obtained:
Assay type in all cases: in vivo
barnyardgrass (Ec) [1] = assay: Test Example 2: herbicidal effects by upland field soil treatment; settings: 100 g of the active ingredient per 10 ares;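 further: grade of growth control; 5 = at least 90%; 4 = 70 to 90%; 3 = 50 to 70%; 2 = 30 to 50%; 1 = 10 to 30%; 0 = under 10%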
Excerpt: (§1) (Test on Herbicidal Effects by Upland Field Soil Treatment)

slender amaranth (Am) [2] = assay: as above; settings: 100 g of the active ingredient per 10 ares
Excerpt: as §1

rice flatsedge (Ci) [3] = assay: as above; settings: 100 g of the active ingredient per 10 ares
Excerpt: as §1

[4] = test system: common lambsquarters (Ch); assay: as above; settings: 100 g of the active ingredient per 10 ares
Excerpt: as §1

Digitaria ciliaris (Di) = assay: as above; settings: 100 g of the active ingredient per 10 ares;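 further: grade of growth control; 5 = at least 90%; 4 = 70 to 90%; 3 = 50 to 70%; 2 = 30 to 50%; 1 = 10 to 30%; 0 = under 10%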
Excerpt: as §1

pale smartweed (Po) [5] = assay: as above; settings: 100 g of the active ingredient per 10 ares
Excerpt: as §1

barnyardgrass (Ec) [6] = assay: Test Example 3: herbicidal effects by upland field foliage treatment; set-up: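 grade of growth control; 5 = at least 90%; 4 = 70 to 90%; 3 = 50 to 70%; 2 = 30 to 50%; 1 = 10 to 30%; 0 = under 10%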
Procedure: (§2) (Test on Herbicidal Effects by Upland Field Foliage Treatment)
(§3) In a plastic pot (surface area: 120 cm^2) filled with sand, barnyardgrass (Ec), Diaitaria ciliaris (Di), pale smartweed (Po), slender amaranth (Am), common lambsquarters (Ch) and rice flatsedge (Ci) were sown and covered with soil and were cultured in a green house for 2 weeks. […] The plants were then cultured in the green house, and the evaluation of the herbicidal effects was conducted on the 14th day after the treatment in accordance with the standards as identified in Table 47. Symbol—represents “not tested”.

slender amaranth (Am) [7] = assay: as above; set-up: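 grade of growth control; 5 = at least 90%; 4 = 70 to 90%; 3 = 50 to 70%; 2 = 30 to 50%; 1 = 10 to 30%; 0 = under 10%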
Procedure: as §2, §3

Diaitaria ciliaris (Di) = assay: as above; set-up: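 grade of growth control; 5 = at least 90%; 4 = 70 to 90%; 3 = 50 to 70%; 2 = 30 to 50%; 1 = 10 to 30%; 0 = under 10%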
Procedure: as §2, §3

rice flatsedge (Ci) [8] = assay: as above; set-up: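 grade of growth control; 5 = at least 90%; 4 = 70 to 90%; 3 = 50 to 70%; 2 = 30 to 50%; 1 = 10 to 30%; 0 = under 10%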
Procedure: as §2, §3

[9] = test system: common lambsquarters (Ch); assay: as above; set-up: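 grade of growth control; 5 = at least 90%; 4 = 70 to 90%; 3 = 50 to 70%; 2 = 30 to 50%; 1 = 10 to 30%; 0 = under 10%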
Procedure: as §2, §3

pale smartweed (Po) [10] = assay: as above; set-up: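 grade of growth control; 5 = at least 90%; 4 = 70 to 90%; 3 = 50 to 70%; 2 = 30 to 50%; 1 = 10 to 30%; 0 = under 10%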
Procedure: as §2, §3

barnyardgrass (Ec) [11] = assay: Test Example 1: herbicidal effects by paddy field soil treatment; settings: 100 g of the active ingredient per 10 ares, 21st day after the application, index 0-5 of Table 47;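 further: grade of growth control; 5 = at least 90%; 4 = 70 to 90%; 3 = 50 to 70%; 2 = 30 to 50%; 1 = 10 to 30%; 0 = under 10%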
Procedure: (§4) (Test on Herbicidal Effects by Paddy Field Soil Treatment)
(§5) In a plastic pot (surface area: 100 cm^2) filled with paddy field soil, barnyardgrass (Ec), monochoria (Mo) and bulrush (Sc) were sown after puddling and leveling, and flooded to a water depth of 3 cm. […] The dose was 100 g of the active ingredient per 10 ares. The plants were then cultured in a green house, and the evaluation of the herbicidal effects was conducted on the 21st day after the application in accordance with the standards as identified in Table 47.

bulrush (Sc) = assay: as above; settings: 100 g of the active ingredient per 10 ares, 21st day after the application, index 0-5 of Table 47;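 further: grade of growth control; 5 = at least 90%; 4 = 70 to 90%; 3 = 50 to 70%; 2 = 30 to 50%; 1 = 10 to 30%; 0 = under 10%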
Procedure: as §4, §5

monochoria (Mo) = assay: as above; settings: 100 g of the active ingredient per 10 ares, 21st day after the application, index 0-5 of Table 47
Procedure: as §4, §5

[12] = evaluated on the 21st day after application
[13] = 100 g active ingredient per 10 ares, evaluated 14th day after treatment
[14] = 21st day after the application, index 0-5 of Table 47
[15] = 100 g of the active ingredient per 10 ares, evaluated on the 14th day after treatment

Row | SMILES | Herbicidal effects Ec (barnyardgrass (Ec) [1]; [12]) | Herbicidal effects Am (slender amaranth (Am) [2]; [12]) | Herbicidal effects Ci (rice flatsedge (Ci) [3]; [12]) | Herbicidal effects Ch [4, 12] | Herbicidal effects Di (Digitaria ciliaris (Di); [12]) | Herbicidal effects Po (pale smartweed (Po) [5]; [12]) | Herbicidal effects Ec (barnyardgrass (Ec) [6]; [13]) | Herbicidal effects Am (slender amaranth (Am) [7]; [13]) | Herbicidal effects Di (Diaitaria ciliaris (Di); [13]) | Herbicidal effects Ci (rice flatsedge (Ci) [8]; [13]) | Herbicidal effects Ch [9, 13] | Herbicidal effects Po (pale smartweed (Po) [10]; [13]) | Herbicidal effects Ec (barnyardgrass (Ec) [11]) | Herbicidal effects Sc (bulrush (Sc)) | Herbicidal effects Mo (monochoria (Mo)) | also measured
1 | CCCN1C(=O)COc2cc(F)c(-c3ccc(C(F)(F)F)n(C)c3=O)cc21 [Compound 2-10] | 5 | 5 | 5 | 5 | 5 | 5 | 5 | 5 | 5 | 5 | 5 | 5 | – | – | – | –
2 | Cn1c(C(F)(F)F)ccc(-c2cc3c(cc2F)OCC(=O)N3CC=CCl)c1=O [Compound 2-14] | 5 | 5 | 5 | 5 | 5 | 5 | 5 | 5 | 5 | 5 | 5 | 5 | – | – | – | –
3 | C#CCN1C(=O)CSc2cc(F)c(-c3ccc(C(F)(F)F)n(C)c3=O)cc21 [Compound 2-21] | 5 | 5 | 5 | 5 | 5 | 5 | – | – | – | – | – | – | 5 | 5 | 5 | –
4 | Cn1c(C(F)(F)F)ccc(-c2cc3c(cc2Cl)OCC(=O)N3)c1=O [Compound 2-27] | 5 | 5 | 5 | 5 | 5 | 5 | – | – | – | – | – | – | 5 | 5 | 5 | –
5 | COCc1cc2c(-c3ccc(C(F)(F)F)n(C)c3=O)c(Cl)cc(Cl)c2o1 [Compound 4-13] | 5 | 5 | 5 | 5 | 5 | 5 | – | – | – | – | – | – | 5 | 5 | 5 | –
6 | CCOCc1cc2c(-c3ccc(C(F)(F)F)n(C)c3=O)c(Cl)cc(Cl)c2o1 [Compound 4-30] | 5 | 5 | 5 | 5 | 5 | 5 | – | – | – | – | – | – | 5 | 5 | 5 | –
7 | CCCOC(C)c1cc2c(-c3ccc(C(F)(F)F)n(C)c3=O)c(F)cc(Cl)c2o1 (stereo not drawn) [Compound 4-37] | 5 | 5 | 5 | 5 | 5 | 5 | 5 | 5 | 5 | 5 | 5 | 5 | – | – | – | –
8 | Cn1cc(-c2ccc(Cl)cc2F)c(=O)cc1C(F)(F)F [Compound 6-2] | 4 | 5 | 5 | 5 | 5 | 5 | 4 | 5 | 5 | 5 | 5 | 5 | – | – | – | –
9 | Cn1c(C(F)(F)F)ccc(-c2ccc(Cl)cc2)c1=O [Compound No. 1-1] | – | – | – | – | – | – | – | – | – | – | – | – | 5 | 5 | 5 | Herbicidal effects Ec (barnyardgrass (Ec) [1]; [14]): 5; Herbicidal effects Am (slender amaranth (Am) [2]; [14]): 5; Herbicidal effects Ci (rice flatsedge (Ci) [3]; [14]): 5; Herbicidal effects Ch [4, 14]: 5; Herbicidal effects Di (Digitaria ciliaris (Di); [14]): 5; Herbicidal effects Po (pale smartweed (Po) [5]; [14]): 5
10 | Cn1c(C(F)(F)F)ccc(-c2cc(O)c(Cl)cc2F)c1=O [Compound No. 1-13] | – | – | – | – | – | – | – | – | – | – | – | – | 5 | 5 | 5 | Herbicidal effects Ec (barnyardgrass (Ec) [6]; [15]): 5; Herbicidal effects Am (slender amaranth (Am) [7]; [15]): 5; Herbicidal effects Di (Diaitaria ciliaris (Di); [15]): 5; Herbicidal effects Ci (rice flatsedge (Ci) [8]; [15]): 5; Herbicidal effects Ch [9, 15]: 5; Herbicidal effects Po (pale smartweed (Po) [10]; [15]): 5
11 | CCOC(=O)COc1cc(-c2ccc(C(F)(F)F)n(C)c2=O)c(F)cc1Cl [Compound No. 1-19] | – | – | – | – | – | – | – | – | – | – | – | – | 5 | 5 | 5 | Herbicidal effects Ec (barnyardgrass (Ec) [6]; [15]): 5; Herbicidal effects Am (slender amaranth (Am) [7]; [15]): 5; Herbicidal effects Di (Diaitaria ciliaris (Di); [15]): 5; Herbicidal effects Ci (rice flatsedge (Ci) [8]; [15]): 5; Herbicidal effects Ch [9, 15]: 5; Herbicidal effects Po (pale smartweed (Po) [10]; [15]): 5
12 | C#CCOc1cc(-c2c(C#N)cc(C(F)(F)F)n(C)c2=O)c(F)cc1Cl [Compound No. 11-6, 3-[2-fluoro-4-chloro-5-(2-propionyloxy)phenyl]-4-cyano-1-methyl-6-trifluoromethyl-2(1H)-pyridone] | 5 | 5 | 5 | 5 | 5 | 5 | – | – | – | – | – | – | 5 | 5 | 5 | –
13 | Cc1ccc(-c2ccc(Cl)cc2)c(=O)[nH]1 [comparative agent, reference compound] | 0 | 0 | 0 | 0 | 0 | 0 | – | – | – | – | – | – | – | – | – | –
